Results from patent EP0908457B1, “3-(1,2-benzisothiazol- and isoxazol-5-Y1)-2,4(1H,3H)-pyrimidinedione or thione and 3-(1,2-benzisothiazol- and isoxazol-5-y1)-4(3H)-pyrimidinone or thione herbicidal agents” (BASF AKTIENGESELLSCHAFT, priority 1997, dated 1999).

Experiments:
[1] = tested on: Monochoria vaginalis, Presl.; experiment: Preemergence weed control under flooded paddy conditions, MOOVA (Monochoria); type: in vivo; conditions: flooded paddy; on herbicidal effect rating, MOOVA: meaning of each grade not given here
Sagittaria pygmaea, L. = experiment: Preemergence weed control under flooded paddy conditions, SAGPY (Arrowhead (Pygmaea)); type: in vivo; conditions: flooded paddy; on herbicidal effect rating, SAGPY: meaning of each grade not given here
[2] = tested on: Cyperus serotinus, Rottb.; experiment: Preemergence weed control under flooded paddy conditions, CYPSE (Flatsedge); type: in vivo; on herbicidal effect rating, CYPSE: meaning of each grade not given here
Cyperus iria = experiment: Preemergence weed control under flooded paddy conditions, CYPIR (Rice Flatsedge); type: in vivo; conditions: flooded paddy; on herbicidal effect rating, CYPIR: meaning of each grade not given here
[3] = tested on: Oryza sativa, (L.) Tebonnet; experiment: Rice tolerance to post-transplant applications under flooded paddy conditions (Example 187), ORYSAT (Rice, Tebonnet); on herbicidal effect rating ORYSAT: meaning of each grade not given here
[4] = tested on: Echinochloa oryzoides (Ard.) Fritsch.; experiment: Preemergence weed control under flooded paddy conditions, ECHORC (Watergrass (Calif.)); type: in vivo; conditions: flooded paddy; on herbicidal effect rating, ECHORC: meaning of each grade not given here
[5] = Rate 0.0320 kg/ha, preemergence, rated three to four weeks after treatment
[6] = Rate 0.0620 kg/ha, preemergence, rated three to four weeks after treatment
[7] = Rate 0.1250 kg/ha, preemergence, rated three to four weeks after treatment
[8] = Rate 0.2500 kg/ha, preemergence, rated three to four weeks after treatment
[9] = Rate 0.0320 kg/ha, rated three to four weeks after treatment
[10] = Rate 0.0620 kg/ha, rated three to four weeks after treatment
[11] = Rate 0.1250 kg/ha, rated three to four weeks after treatment
[12] = Rate 0.2500 kg/ha, rated three to four weeks after treatment
[13] = Rate 0.0320 kg/ha, preemergence, rated 3-4 weeks after treatment
[14] = Rate 0.0620 kg/ha, preemergence, rated 3-4 weeks after treatment
[15] = Rate 0.1250 kg/ha, preemergence, rated 3-4 weeks after treatment
[16] = Rate 0.2500 kg/ha, preemergence, rated 3-4 weeks after treatment
[17] = Rate 0.0320 kg/ha, rated 3-4 weeks after treatment
[18] = Rate 0.0620 kg/ha, rated 3-4 weeks after treatment
[19] = Rate 0.1250 kg/ha, rated 3-4 weeks after treatment
[20] = Rate 0.2500 kg/ha, rated 3-4 weeks after treatment
[21] = Rate 0.5000 kg/ha, preemergence, rated 3-4 weeks after treatment
[22] = Rate 0.5000 kg/ha, preemergence, rated three to four weeks after treatment
[23] = Rate 0.0320 kg/ha, preemergence weeds, rated three to four weeks after treatment
[24] = Rate 0.0620 kg/ha, preemergence weeds, rated three to four weeks after treatment
[25] = Rate 0.1250 kg/ha, preemergence weeds, rated three to four weeks after treatment
[26] = Rate 0.2500 kg/ha, preemergence weeds, rated three to four weeks after treatment

C#CCC(C#N)(CC#C)c1nsc2ccc(-n3c(=O)cc(C(F)(F)F)n(C)c3=O)cc12 [Example 581, 1,2-Benzisothiazole-3-acetonitrile, 5-[3,6-dihydro-3-methyl-2,6-dioxo-4-(trifluoromethyl)-1(2H)-pyrimidinyl]-alpha,alpha-di-2-propynyl-]
8.0: herbicidal effect rating, CYPSE [2, 8]
1.5: herbicidal effect rating, CYPSE [2, 6] | herbicidal effect rating ORYSAT [3, 9]
8.5: herbicidal effect rating, ECHORC [4, 6]
6.0: herbicidal effect rating, CYPSE [2, 7] | herbicidal effect rating ORYSAT [3, 11] | herbicidal effect rating, ECHORC [4, 5]
1.0: herbicidal effect rating, CYPSE [2, 5]
3.5: herbicidal effect rating ORYSAT [3, 10]
4.5: herbicidal effect rating, MOOVA [1, 5] | herbicidal effect rating, MOOVA [1, 6] | herbicidal effect rating, CYPIR (Cyperus iria; [6])
9.0: herbicidal effect rating, MOOVA [1, 7] | herbicidal effect rating, MOOVA [1, 8] | herbicidal effect rating, SAGPY (Sagittaria pygmaea, L.; [6]) | herbicidal effect rating, SAGPY (Sagittaria pygmaea, L.; [7]) | herbicidal effect rating, SAGPY (Sagittaria pygmaea, L.; [8]) | herbicidal effect rating, CYPIR (Cyperus iria; [7]) | herbicidal effect rating, CYPIR (Cyperus iria; [8]) | herbicidal effect rating, ECHORC [4, 7] | herbicidal effect rating, ECHORC [4, 8]
7.0: herbicidal effect rating ORYSAT [3, 12]
3.0: herbicidal effect rating, SAGPY (Sagittaria pygmaea, L.; [5]) | herbicidal effect rating, CYPIR (Cyperus iria; [5])

CC=CCOC(=O)C(C)(C)Oc1ccc(C)cc1-c1nsc2ccc(-n3c(=O)cc(C(F)(F)F)n(C)c3=O)cc12 [Example 529, Propionic acid, 2-{{2-{5-[3,6-dihydro-3-methyl-2,6-dioxo-4-(trifluoromethyl)-1(2H)-pyrimidinyl]-1,2-benzisothiazol-3-yl}-p-tolyl}oxy}-2-methyl-, 2-butenyl ester]
9.0: herbicidal effect rating, SAGPY (Sagittaria pygmaea, L.; [13]) | herbicidal effect rating, SAGPY (Sagittaria pygmaea, L.; [14]) | herbicidal effect rating, SAGPY (Sagittaria pygmaea, L.; [15]) | herbicidal effect rating, SAGPY (Sagittaria pygmaea, L.; [16]) | herbicidal effect rating ORYSAT [3, 20] | herbicidal effect rating, ECHORC [4, 14] | herbicidal effect rating, ECHORC [4, 15] | herbicidal effect rating, ECHORC [4, 16]
3.0: herbicidal effect rating, MOOVA [1, 13] | herbicidal effect rating, MOOVA [1, 14] | herbicidal effect rating, MOOVA [1, 15] | herbicidal effect rating, CYPIR (Cyperus iria; [13]) | herbicidal effect rating, CYPIR (Cyperus iria; [14]) | herbicidal effect rating, CYPIR (Cyperus iria; [15]) | herbicidal effect rating ORYSAT [3, 19]
7.0: herbicidal effect rating, ECHORC [4, 13]
0.0: herbicidal effect rating, MOOVA [1, 16] | herbicidal effect rating, CYPSE [2, 13] | herbicidal effect rating, CYPSE [2, 14] | herbicidal effect rating, CYPSE [2, 15] | herbicidal effect rating, CYPSE [2, 16] | herbicidal effect rating, CYPIR (Cyperus iria; [16]) | herbicidal effect rating ORYSAT [3, 17] | herbicidal effect rating ORYSAT [3, 18]

COCCOC(=O)C(C)(C)Oc1ccc(C)cc1-c1nsc2ccc(-n3c(=O)cc(C(F)(F)F)n(C)c3=O)cc12 [Example 546, Propionic acid, 2-{{2-{5-[3,6-dihydro-3-methyl-2,6-dioxo-4-(trifluoromethyl)-1(2H)-pyrimidinyl]-1,2-benzisothiazol-3-yl}-p-tolyl}oxy}-2-methyl-, 2-methoxyethyl ester]
4.0: herbicidal effect rating, SAGPY (Sagittaria pygmaea, L.; [15]) | herbicidal effect rating, CYPIR (Cyperus iria; [14]) | herbicidal effect rating ORYSAT [3, 19]
0.0: herbicidal effect rating, SAGPY (Sagittaria pygmaea, L.; [13]) | herbicidal effect rating, SAGPY (Sagittaria pygmaea, L.; [14]) | herbicidal effect rating, CYPSE [2, 13] | herbicidal effect rating, CYPSE [2, 14] | herbicidal effect rating, CYPSE [2, 21]
7.0: herbicidal effect rating, MOOVA [1, 14] | herbicidal effect rating, MOOVA [1, 15] | herbicidal effect rating ORYSAT [3, 20]
3.0: herbicidal effect rating, CYPIR (Cyperus iria; [13]) | herbicidal effect rating ORYSAT [3, 18]
6.0: herbicidal effect rating, MOOVA [1, 13] | herbicidal effect rating, CYPIR (Cyperus iria; [15]) | herbicidal effect rating ORYSAT ([3]; Rate 0.5000 kg/ha, rated 3-4 weeks after treatment)
4.1: herbicidal effect rating, ECHORC [4, 13]
4.3: herbicidal effect rating, ECHORC [4, 14]
2.0: herbicidal effect rating, CYPIR (Cyperus iria; [21]) | herbicidal effect rating ORYSAT [3, 17]
4.6: herbicidal effect rating, ECHORC [4, 15]
9.0: herbicidal effect rating, MOOVA [1, 16] | herbicidal effect rating, MOOVA [1, 21] | herbicidal effect rating, SAGPY (Sagittaria pygmaea, L.; [16]) | herbicidal effect rating, SAGPY (Sagittaria pygmaea, L.; [21]) | herbicidal effect rating, CYPSE [2, 15] | herbicidal effect rating, CYPSE [2, 16] | herbicidal effect rating, CYPIR (Cyperus iria; [16]) | herbicidal effect rating, ECHORC [4, 16] | herbicidal effect rating, ECHORC [4, 21]

CC(c1nsc2ccc(-n3c(=O)cc(C(F)(F)F)n(C)c3=O)cc12)S(C)(=O)=O (stereo not drawn) [Example 590, 2,4(1H,3H)-Pyrimidinedione, 1-methyl-3-{3-[1-(methylsulfonyl)ethyl}-1,2-benzisothiazol-5-yl}-6-(trifluoromethyl)-]
8.0: herbicidal effect rating, SAGPY (Sagittaria pygmaea, L.; [7])
5.0: herbicidal effect rating, CYPSE [2, 8] | herbicidal effect rating ORYSAT [3, 10] | herbicidal effect rating ORYSAT [3, 11] | herbicidal effect rating, ECHORC [4, 6]
3.0: herbicidal effect rating, SAGPY (Sagittaria pygmaea, L.; [5]) | herbicidal effect rating ORYSAT [3, 9] | herbicidal effect rating, ECHORC [4, 5]
2.0: herbicidal effect rating, CYPIR (Cyperus iria; [5])
7.0: herbicidal effect rating, MOOVA [1, 6] | herbicidal effect rating, MOOVA [1, 7] | herbicidal effect rating, CYPIR (Cyperus iria; [6]) | herbicidal effect rating, CYPIR (Cyperus iria; [7])
4.0: herbicidal effect rating, SAGPY (Sagittaria pygmaea, L.; [6])
0.0: herbicidal effect rating, CYPSE [2, 5]
6.0: herbicidal effect rating ORYSAT [3, 12] | herbicidal effect rating, ECHORC [4, 7]
9.0: herbicidal effect rating, MOOVA [1, 8] | herbicidal effect rating, SAGPY (Sagittaria pygmaea, L.; [8]) | herbicidal effect rating, CYPIR (Cyperus iria; [8]) | herbicidal effect rating, ECHORC [4, 8]

Cc1nsc2ccc(-n3c(=O)c(Cl)c(C(F)(F)F)n(C)c3=O)cc12 [Example 271, 2,4(1H,3H)-Pyrimidinedione, 5-chloro-1-methyl-3-(3-methyl-1,2-benzisothiazol-5-yl)-6-(trifluoromethyl)-]
0.0: MOOVA herbicidal effect rating [1, 6] | SAGPY herbicidal effect rating (Sagittaria pygmaea, L.; [6]) | SAGPY herbicidal effect rating (Sagittaria pygmaea, L.; [7]) | SAGPY herbicidal effect rating (Sagittaria pygmaea, L.; [8]) | SAGPY herbicidal effect rating (Sagittaria pygmaea, L.; [22]) | CYPSE herbicidal effect rating [2, 6] | CYPSE herbicidal effect rating [2, 7] | CYPSE herbicidal effect rating [2, 8] | CYPSE herbicidal effect rating [2, 22] | CYPIR herbicidal effect rating (Cyperus iria; [6]) | CYPIR herbicidal effect rating (Cyperus iria; [7]) | CYPIR herbicidal effect rating (Cyperus iria; [8]) | CYPIR herbicidal effect rating (Cyperus iria; [22]) | ORYSAT herbicidal effect rating ([3]; Rate 0.5000 kg/ha, rated three to four weeks after treatment) | ECHORC herbicidal effect rating [4, 6] | ECHORC herbicidal effect rating [4, 7] | ECHORC herbicidal effect rating [4, 8] | ECHORC herbicidal effect rating [4, 22]
4.0: MOOVA herbicidal effect rating [1, 7]
3.0: ORYSAT herbicidal effect rating [3, 12]
9.0: MOOVA herbicidal effect rating [1, 8] | MOOVA herbicidal effect rating [1, 22]
2.0: ORYSAT herbicidal effect rating [3, 11]
1.0: ORYSAT herbicidal effect rating [3, 10]

CC(O)c1nsc2ccc(-n3c(=O)cc(C(F)(F)F)n(C)c3=O)cc12 (stereo not drawn) [Example 308, 2,4(1H,3H)-Pyrimidinedione, 3-[3-(1-hydroxyethyl)-1,2-benzisothiazol-5-yl]-1-methyl-6-(trifluoromethyl)-]
6.0: herbicidal effect rating ORYSAT [3, 11] | herbicidal effect rating, ECHORC [4, 25]
5.0: herbicidal effect rating ORYSAT [3, 9] | herbicidal effect rating ORYSAT [3, 10] | herbicidal effect rating, ECHORC [4, 23] | herbicidal effect rating, ECHORC [4, 24]
0.0: herbicidal effect rating, MOOVA [1, 23] | herbicidal effect rating, MOOVA [1, 24] | herbicidal effect rating, MOOVA [1, 25] | herbicidal effect rating, MOOVA [1, 26] | herbicidal effect rating, SAGPY (Sagittaria pygmaea, L.; [23]) | herbicidal effect rating, SAGPY (Sagittaria pygmaea, L.; [24]) | herbicidal effect rating, CYPSE [2, 23] | herbicidal effect rating, CYPSE [2, 24] | herbicidal effect rating, CYPIR (Cyperus iria; [23]) | herbicidal effect rating, CYPIR (Cyperus iria; [24]) | herbicidal effect rating, CYPIR (Cyperus iria; [25]) | herbicidal effect rating, CYPIR (Cyperus iria; [26])
9.0: herbicidal effect rating, SAGPY (Sagittaria pygmaea, L.; [26]) | herbicidal effect rating, CYPSE [2, 26] | herbicidal effect rating, ECHORC [4, 26]
3.0: herbicidal effect rating, SAGPY (Sagittaria pygmaea, L.; [25]) | herbicidal effect rating, CYPSE [2, 25]
7.0: herbicidal effect rating ORYSAT [3, 12]
